Data as given in US6649565B1, “Selective herbicides on the basis of a substituted phenylsulfonylaminocarbonyltriazolinone and safeners” (Bayer Aktiengesellschaft, priority 1999, dated 2003).

Assays:
[1] = test system: wheat of the cultivar Orestis; assay: Post-emergence test/greenhouse, damage to crop plant wheat; assay type: in vivo; details: greenhouse, after approx. 18 days
From the text: (§1) The active compounds in question were used in the form of customary formulations. The sodium salt of the compound of the formula (I) was applied as 70 WG or 70 WP, mefenpyr-diethyl was applied as 100 EC and fenchlorazole-ethyl and cloquintocetmexyl were applied as a laboratory formulation of the active compound produced by ourselves. The active compounds and, if appropriate, the safeners were used to prepare an aqueous spray liquor comprising 0.1% of the additive Renex-36.
(§2) The active compound preparation is used to spray test plants which were grown in 10×10 cm pots (growth medium: soil or vermiculte), such that the particular amounts of active compound desired are applied per unit area. The concentration of the spray liquor is chosen such that the particular amounts of active compound desired are applied in […].
(§3) After approximately 18 days the degree of damage to the crop plants was rated in % damage in comparison with the development of the untreated control.
(§4) 0%=no damage (like untreated control)
(§5) 100%=total destruction/damage
(§6) Active compounds, application rates, test plants and results are shown in the tables below, the terms used in the tables having the following meaning:
wheat=wheat of the cultivar Orestis
(§7) a.i.=active ingredient=active compound/safener

[2] = test system: barley of the cultivar Coronar; assay: Post-emergence test/greenhouse, damage to crop plant barley; assay type: in vivo; details: greenhouse, after approx. 18 days
From the text: as §1, §2, §3, §4, §5, §6
barley=barley of the cultivar Coronar
as §7

CCCOc1nn(C(=O)[N-]S(=O)(=O)c2ccccc2C(=O)OC)c(=O)n1C.[Na+]
Damage wheat ([1]; Table A1, 90 g of a.i./ha): 20% | Damage wheat ([1]; Table A1, 180 g of a.i./ha): 30% | Damage wheat ([1]; Table A2, 60 g of a.i./ha): 20% | Damage wheat ([1]; Table A2, 125 g of a.i./ha): 30% | Damage wheat ([1]; Table A2, 250 g of a.i./ha): 50% | Damage wheat ([1]; Table A3, 30 g of a.i./ha): 5% | Damage wheat ([1]; Table A3, 60 g of a.i./ha): 10% | Damage wheat ([1]; Table A3, 125 g of a.i./ha): 50% | Damage wheat ([1]; Table A4, 60 g of a.i./ha): 30% | Damage wheat ([1]; Table A4, 125 g of a.i./ha): 40% | Damage wheat ([1]; Table A7, 60 g of a.i./ha): 20% | Damage wheat ([1]; Table A7, 125 g of a.i./ha): 30% | Damage wheat ([1]; Table A7, 250 g of a.i./ha): 50% | Damage wheat ([1]; Table A8, 30 g of a.i./ha): 5% | Damage wheat ([1]; Table A8, 60 g of a.i./ha): 10% | Damage wheat ([1]; Table A8, 125 g of a.i./ha): 50% | Damage barley ([2]; Table A5, 15 g of a.i./ha): 50% | Damage barley ([2]; Table A5, 30 g of a.i./ha): 70% | Damage barley ([2]; Table A5, 60 g of a.i./ha): 70% | Damage barley ([2]; Table A6, 8 g of a.i./ha): 50% | Damage barley ([2]; Table A6, 15 g of a.i./ha): 50% | Damage barley ([2]; Table A6, 30 g of a.i./ha): 60% | Damage barley ([2]; Table A6, 60 g of a.i./ha): 60% | Damage barley ([2]; Table A9, 15 g of a.i./ha): 50% | Damage barley ([2]; Table A9, 30 g of a.i./ha): 70% | Damage barley ([2]; Table A9, 60 g of a.i./ha): 70%
